Test results published in ChEMBL document CHEMBL1131977, “Synthesis and in vitro activity of new oxazolidinone antibacterial agents having substituted isoxazoles” (1999).
Converted amounts (≈) assume the structure as drawn.

Tests used:
Type in all cases: functional
Staphylococcus aureus [1] = test: In vitro antibacterial activity against ciprofloxacin-resistant Staphylococcus aureus (CRSA) C6043.
Staphylococcus aureus [2] = test: In vitro antibacterial activity against methicillin-resistant Staphylococcus aureus (MRSA) C6068.
Enterococcus faecium [3] = test: In vitro antibacterial activity against Enterococcus faecium C6301 (E.f.2).
Enterococcus faecalis = test: In vitro antibacterial activity against Enterococcus faecalis C6291 (E.f.1).
[4] = system: Staphylococcus epidermidis; test: In vitro antibacterial activity against Staphylococcus epidermis (S.e.2) C2235.
Staphylococcus aureus [5] = test: In vitro antibacterial activity against methicillin-susceptible Staphylococcus aureus (MSSA) C2214.
[6] = system: Staphylococcus epidermidis; test: In vitro antibacterial activity against Staphylococcus epidermis (S.e.1) […].
Streptococcus pyogenes [7] = test: In vitro antibacterial activity against Streptococcus pyogenes ATCC 8668 (S.p.1).
Streptococcus pyogenes [8] = test: In vitro antibacterial activity against Streptococcus pyogenes C6003 (S.p.2).
Enterococcus faecium [9] = test: In vitro antibacterial activity against vancomycin-resistant Enterococcus faecium C6487 (VRE).
Staphylococcus aureus [10] = test: In vitro antibacterial activity against Staphylococcus aureus (S. a.) ATCC 29213.

Structure (SMILES)	MIC (Staphylococcus aureus [1]) [µg/mL]	MIC (Staphylococcus aureus [2]) [µg/mL]	MIC (Enterococcus faecium [3]) [µg/mL]	MIC (Enterococcus faecalis) [µg/mL]	MIC [4] [µg/mL]	MIC (Staphylococcus aureus [5]) [µg/mL]	MIC [6] [µg/mL]	MIC (Streptococcus pyogenes [7]) [µg/mL]	MIC (Streptococcus pyogenes [8]) [µg/mL]	MIC (Enterococcus faecium [9]) [µg/mL]	MIC (Staphylococcus aureus [10]) [µg/mL]
CC(=O)NC[C@H]1CN(c2ccc(N3CCN(C(=O)c4ccno4)CC3)c(F)c2)C(=O)O1	2 (≈ 4.64 µM)	1 (≈ 2.32 µM)	1 (≈ 2.32 µM)	2 (≈ 4.64 µM)	1 (≈ 2.32 µM)	2 (≈ 4.64 µM)	1 (≈ 2.32 µM)	0.5 (≈ 1.16 µM)	0.5 (≈ 1.16 µM)	22 (≈ 51 µM)	2 (≈ 4.64 µM)
CC(=O)NC[C@H]1CN(c2ccc(N3CCN(Cc4cc(/C=C/c5ccccc5)no4)CC3)c(F)c2)C(=O)O1		32 (≈ 61.6 µM)	8 (≈ 15.4 µM)	16 (≈ 30.8 µM)	16 (≈ 30.8 µM)	> 32	2 (≈ 3.85 µM)	2 (≈ 3.85 µM)	2 (≈ 3.85 µM)	8 (≈ 15.4 µM)	> 32
COc1cc(C(=O)N2CCN(c3ccc(N4C[C@H](CNC(C)=O)OC4=O)cc3F)CC2)on1	4 (≈ 8.67 µM)	2 (≈ 4.33 µM)	2 (≈ 4.33 µM)	2 (≈ 4.33 µM)	0.5 (≈ 1.08 µM)	4 (≈ 8.67 µM)	0.5 (≈ 1.08 µM)	0.5 (≈ 1.08 µM)	0.5 (≈ 1.08 µM)	2 (≈ 4.33 µM)	4 (≈ 8.67 µM)
CC(=O)NC[C@H]1CN(c2ccc(N3CCN(C(=O)c4cc(COC(=O)N(C)C)no4)CC3)c(F)c2)C(=O)O1	4 (≈ 7.51 µM)	2 (≈ 3.76 µM)	2 (≈ 3.76 µM)	2 (≈ 3.76 µM)	2 (≈ 3.76 µM)	4 (≈ 7.51 µM)	1 (≈ 1.88 µM)	0.5 (≈ 0.939 µM)	0.5 (≈ 0.939 µM)	2 (≈ 3.76 µM)	4 (≈ 7.51 µM)
CC(=O)NC[C@H]1CN(c2ccc(N3CCN(Cc4cc(-c5ccc(Cl)cc5)no4)CC3)c(F)c2)C(=O)O1	> 32	16 (≈ 30.3 µM)	32 (≈ 60.6 µM)	> 32	32 (≈ 60.6 µM)	32 (≈ 60.6 µM)	16 (≈ 30.3 µM)	4 (≈ 7.58 µM)	4 (≈ 7.58 µM)	32 (≈ 60.6 µM)	> 32
CC(=O)NC[C@H]1CN(c2ccc(N3CCN(C(=O)c4cc(C(N)=O)no4)CC3)c(F)c2)C(=O)O1	2 (≈ 4.22 µM)	1 (≈ 2.11 µM)	1 (≈ 2.11 µM)	1 (≈ 2.11 µM)	0.5 (≈ 1.05 µM)	2 (≈ 4.22 µM)	0.5 (≈ 1.05 µM)	0.25 (≈ 0.527 µM)	0.25 (≈ 0.527 µM)	1 (≈ 2.11 µM)	2 (≈ 4.22 µM)
CC(=O)NC[C@H]1CN(c2ccc(N3CCN(C(=O)c4cc(C#N)no4)CC3)c(F)c2)C(=O)O1	2 (≈ 4.38 µM)	1 (≈ 2.19 µM)	1 (≈ 2.19 µM)	2 (≈ 4.38 µM)	0.5 (≈ 1.1 µM)	2 (≈ 4.38 µM)	0.5 (≈ 1.1 µM)	0.25 (≈ 0.548 µM)	0.25 (≈ 0.548 µM)	1 (≈ 2.19 µM)	2 (≈ 4.38 µM)
CC(=O)NC[C@H]1CN(c2ccc(N3CCN(C(=O)c4cc(-c5csnn5)no4)CC3)c(F)c2)C(=O)O1	2 (≈ 3.88 µM)	1 (≈ 1.94 µM)	1 (≈ 1.94 µM)	1 (≈ 1.94 µM)	1 (≈ 1.94 µM)	2 (≈ 3.88 µM)	0.5 (≈ 0.97 µM)	0.5 (≈ 0.97 µM)	0.5 (≈ 0.97 µM)	1 (≈ 1.94 µM)	2 (≈ 3.88 µM)
CC(=O)NC[C@H]1CN(c2ccc(N3CCN(Cc4cc(-c5ccc(C)cc5)no4)CC3)c(F)c2)C(=O)O1	32 (≈ 63 µM)	8 (≈ 15.8 µM)	8 (≈ 15.8 µM)	16 (≈ 31.5 µM)	8 (≈ 15.8 µM)	32 (≈ 63 µM)	4 (≈ 7.88 µM)	4 (≈ 7.88 µM)	4 (≈ 7.88 µM)	8 (≈ 15.8 µM)	32 (≈ 63 µM)
CC(=O)NC[C@H]1CN(c2ccc(N3CCN(C(=O)c4cc(O)no4)CC3)c(F)c2)C(=O)O1			> 32	> 32	> 32	> 32	> 32	16 (≈ 35.8 µM)	16 (≈ 35.8 µM)		> 32
CC(=O)NC[C@H]1CN(c2ccc(N3CCN(C(=O)c4cc(OCCF)no4)CC3)c(F)c2)C(=O)O1	2 (≈ 4.05 µM)	2 (≈ 4.05 µM)	1 (≈ 2.03 µM)	2 (≈ 4.05 µM)	2 (≈ 4.05 µM)	2 (≈ 4.05 µM)	1 (≈ 2.03 µM)	0.5 (≈ 1.01 µM)	0.5 (≈ 1.01 µM)	1 (≈ 2.03 µM)	4 (≈ 8.11 µM)
CC(=O)NC[C@H]1CN(c2ccc(N3CCOCC3)c(F)c2)C(=O)O1 [LINEZOLID]		1 (≈ 2.96 µM)	1 (≈ 2.96 µM)		1 (≈ 2.96 µM)		1 (≈ 2.96 µM)	0.5 (≈ 1.48 µM)	0.5 (≈ 1.48 µM)	2 (≈ 5.93 µM)	
CN[C@H](CC(C)C)C(=O)N[C@H]1C(=O)N[C@@H](CC(N)=O)C(=O)N[C@H]2C(=O)N[C@H]3C(=O)N[C@H](C(=O)N[C@H](C(=O)O)c4cc(O)cc(O)c4-c4cc3ccc4O)[C@H](O)c3ccc(c(Cl)c3)Oc3cc2cc(c3O[C@@H]2O[C@H](CO)[C@@H](O)[C@H](O)[C@H]2O[C@H]2C[C@](C)(N)[C@H](O)[C@H](C)O2)Oc2ccc(cc2Cl)[C@H]1O [VANCOMYCIN]				1 (≈ 0.69 µM)			0.5 (≈ 0.345 µM)	0.25 (≈ 0.173 µM)	0.25 (≈ 0.173 µM)	> 32	
